Reference: patent US20150125498A1, “NEW PARTICLE STABILIZED EMULSIONS AND FOAMS” (SPEXIMO AB, priority 2010, published 2015)

Legend:
adult humans = conditions: cited from earlier work
[1] = In vitro skin penetration of methyl salicylate in flow diffusion cell (Experiment 9); assay type: in vitro ADME, pig
Method: The emulsions contained 56% oil and 214 mg starch/ml oil (corresponding to sample M in experiment 8). The total volume was 7 ml and each experiment was performed in triplicate. Methyl salicylate, dissolved in the oil phase, was used as control substance for studying the permeability into the skin.
The skin diffusion measurement was performed in a flow cell by monitoring the transport of methyl salicylate from the three different topical formulations across pigskin membrane and silicone membrane under a flow of phosphate buffer with pH 6.8. The diffusion experiments were performed in seven-chamber diffusion cells at 32° C. and the donor and receptor phase were separated by a membrane with a diffusion area of 0.64 cm^2 (9 mm Ø). About 1 g of the emulsions (donor phase) were spread uniformly on the membranes. The cells were covered with parafilm to avoid evaporation. Buffer flowed through the pump (IsmatecIPN-16, L852) with a flow of 2 ml/h. Samples were collected every two hours during 12 hours and were analyzed using a spectrophotometer (Varian Carry 50Bio) at the detection wavelength for methyl salicylate (302 nm).

In the case of `COC(=O)c1ccccc1O` [methyl salicylate, Methyl salicylate], the LD50 (adult humans) is listed as 500 mg/kg, the “Steady state flux of methyl salicylate” value ([1]; pig skin, 32° C., 56% oil starch Pickering emulsions) is listed as “around 8 μg/(cm2*h)” and the “Flux compared with buffer solutions of the same methyl salicylate concentration” value ([1]; similar experimental set up observed previously) is listed as “nearly two times higher”.
